Measurements as given in US20140161786A1, “Therapeutic compositions and related methods” (priority 2012, published 2014).
Where a SMILES comes first, the peptide text is derived from it.

How the values were obtained:
[1] = test system: plasma cytokine levels (IL-6, IL-2, TGF-β, IL-17); assay: Plasma cytokine levels in EAE mice (multiplex-bead-analysis of 26 cytokines); format: in vivo; conditions: 1 μg of Tau 623-628 or 10 μg of HspB1 daily for two days, bled 12 hours later
Method: EAE was induced by procedures previously described. See, Steinman, L. & Zamvil, S. S. How to successfully apply animal studies in experimental allergic encephalomyelitis to research on multiple sclerosis. Ann Neurol 60, 12-21, doi:10.1002/ana.20913 (2006). […] Sera from EAE mice were collected following two days of treatment with 10 μg HspB1 protein, 1 μg tau 623-628 (VQIVYK)(SEQ ID NO: 123), or PBS. Twenty-six cytokines were analyzed by multiplex-bead-analysis.
To determine whether a hexamer modulated the plasma cytokine levels equivalent to an intact small heat shock protein, groups of five mice were treated after the onset of hindlimb weakness with daily injections of either 1 μg of Tau 623-628 or 10 μg of HspB1 for two days and bled 12 hours later.

EAE mice = assay: EAE mouse model, reduction of paralytic symptoms; format: in vivo
[2] = Amyloid fibril formation by thioflavin T (ThT) fluorescence; format: physicochemical; conditions: for pH dependent amyloid fibril formation (ThT staining): buffers pH 3 to pH 10, 37° C., fluorescence at 485 nm; for amyloid fibril formation (ThT staining), L- versus D-amino acids: 100 mM MES pH 7.4, 37° C.
Method: The relative amount of amyloid present in each solution was measured by combining solutions of the hexamers (200 mg 50 ml) dissolved in 100 mM MES pH 7.4 and 50 ml of a 1M buffer solution at the appropriate pH (glycine, pH 3; acetate, pH 4; citrate, pH 5; MES, pH 6; Tris, pH 7; Tris, pH 8; glycine, pH 9; bicarbonate, pH 10) and incubated at 37° C. ThT (10 ml of 10 mM solution) was added and the resultant emission fluorescence at 485 nm for each sample after excitation at 440 nm was measured using a SpectraMax 190 fluorescent microtiter plate reader.
The ability of each hexamer listed in Table 1 to form amyloid fibrils in aqueous buffers was examined. Each of the hexamers (200 mg 50 ml) was added to 100 ml of 100 mM MES pH 7.4 and combined with 50 ml of a 1M buffer solution at the appropriate pH (glycine, pH 3; acetate, pH 4; citrate, pH 5; MES, pH 6; Tris, pH 7; Tris, pH 8; glycine, pH 9; bicarbonate, pH 10) and incubated at 37° C. ThT (10 ml of 10 mM solution) was added and the resultant fluorescence at 485 nm from excitation at 440 nm was measured using a fluorescent plate reader. The peptides can be segregated into sets A-E: an anionic set forming fibrils at pH 3, pH 4, and pH 5 (A), a cationic group forming fibrils only at pH 10 (B), three cationic sequences that form amyloid fibrils at all pHs measured (C), a nonionizable set of sequences weakly binding ThT at all pHs (D), and a hydrophobic set of sequences that bind ThT at all pHs tested (E). Only a fraction of the peptides formed amyloid fibrils when dissolved in PBS pH 7.4, as measured by staining with thioflavin T (ThT). Their differential propensity to form amyloid fibrils was used to help segregate them into functional sets (Table 1).
With respect the experimental results depicted in FIG. 6: A) L- and D-tau 623-628 and L- and D-Aβ 37-42 (200 μg/50 μl) were each added to 100 μl of 100 mM MES pH 7.4 and incubated at 37° C. ThT (10 μl of 10 μM solution) was added and the resultant fluorescence at 485 nm from excitation at 440 nm was measured using a fluorescent plate reader. The levels of ThT were similar in both sets of hexapeptides. […] D) Groups of ten mice were injected daily intraperitoneally for 10 days with 1 μg of L-tau or D-tau hexapeptides beginning at onset of hindlimb weakness. PBS was injected in littermates as control. Bar represents the duration of the treatment. Values in graph represent mean+/−S.E.M. *p<0.05 for L-tau and ̂p<0.05 for D-tau by Mann-Whitney U test.

beta chain of insulin = target: T1, beta chain of insulin (Homo sapiens, UniProt P01308); assay: Inhibition of DTT induced aggregation of the beta chain of insulin (molecular chaperone function); format: biochemical; conditions: for inhibition of insulin aggregation, L- versus D-amino acids: FIG. 6b/6c; for molecular chaperone function (inhibition of insulin aggregation): pH 4 and pH 7.4; for inhibition of insulin aggregation: pH 7.4 and pH 5
T1 construct: DTT induced aggregation of the beta chain of insulin
Method: The capacity of the proteins and peptides to inhibit DTT induced aggregation of the beta chain of insulin was assayed using procedures described previously by several authors. See, for example, Hong, D. P. & Fink, A. L. Independent heterologous fibrillation of insulin and its B-chain peptide. Biochemistry 44, 16701-16709, doi:10.1021/bi051658y (2005). Also see, Hong, D. P., Ahmad, A. & Fink, A. L. Fibrillation of human insulin A and B chains. Biochemistry 45, 9342-9353, doi:10.1021/bi0604936 (2006). The aggregation was measured by the increase in absorption at 360 nm as a function of time over twenty minutes.
To determine whether the ThT staining observed in Experiment 4 (above) correlated with molecular chaperone function, each of the peptides was assayed for its ability to inhibit insulin aggregation. The effect of ThT on insulin aggregation was measured as a control. […] […] See, Nielsen, L. et al. Effect of environmental factors on the kinetics of insulin fibril formation: elucidation of the molecular mechanism. Biochemistry 40, 6036-6046, doi:bi002555c [pii] (2001).

[3] = mice, 1 μg peptide injected daily from onset of hindlimb weakness, PBS control

T1 sequence (P01308 25-54 limits assumed): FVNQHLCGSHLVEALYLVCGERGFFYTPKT

HspB1: intact small heat shock protein
IL-2 level in serum [1]: smaller reductions
IL-6 level in serum [1]: dramatic reduction
IL-17 level in serum [1]: smaller reductions
TGF-β level in serum [1]: smaller reductions

GYVIIK [serum amyloid P 213-218]
reduction of the paralytic symptoms of EAE (EAE mice; [3]): therapeutic
pH dependent amyloid fibril formation (ThT staining) [2]: formed amyloid fibrils in buffers from pH 3-10

L-Aβ 37-42: L-amino acid hexapeptide of FIG. 6A; b76 calls it A beta 35-40 (Ac MVGGVV CONH2) (Ac-MVGGVV-NH2; UniProt P05067 706-711, looked up, fragment)
amyloid fibril formation (ThT staining), L- versus D-amino acids [2]: similar

VQIVYK [Tau 623-628]
reduction of the paralytic symptoms of EAE (EAE mice; [3]): effectively reduced the paralytic symptoms of EAE
IL-2 level in serum [1]: smaller reductions
IL-6 level in serum [1]: dramatic reduction
IL-17 level in serum [1]: smaller reductions
TGF-β level in serum [1]: smaller reductions
amyloid fibril formation (ThT staining), L- versus D-amino acids [2]: equivalent, within error
amyloid fibril formation (ThT staining), L- versus D-amino acids ([2]; listed as L-tau 623-628): similar
pH dependent amyloid fibril formation (ThT staining) [2]: formed amyloid fibrils in buffers from pH 3-10
inhibition of insulin aggregation, L- versus D-amino acids (beta chain of insulin): inhibited insulin aggregation with very similar IC50 values
inhibition of insulin aggregation, L- versus D-amino acids (beta chain of insulin; listed as L-tau): inhibit insulin aggregation in a dose dependent manner with similar IC50 concentrations
molecular chaperone function (inhibition of insulin aggregation) (beta chain of insulin): inhibited insulin aggregation at pH 4 and pH 7.4
inhibition of insulin aggregation (beta chain of insulin): potent inhibitor at both pH 7.4 and pH 5
IC50, inhibition of insulin aggregation (beta chain of insulin; titration, Panel C of FIG. 4): approximately 20 mg

amyloid beta A4 16-21: lysine-containing hexamer of amyloid beta A4 residues 16-21 (KLVFFA; Amyloid-beta protein 42; UniProt P05067 687-692, looked up, fragment)
pH dependent amyloid fibril formation (ThT staining) [2]: formed amyloid fibrils in buffers from pH 3-10

NKGAII [A beta A4 27-32]
reduction of the paralytic symptoms of EAE (EAE mice; [3]): therapeutic
pH dependent amyloid fibril formation (ThT staining) [2]: bound ThT only at pH 10

CC(=O)N[C@@H](CO)C(=O)N[C@@H](CC(N)=O)C(=O)N[C@@H](CCC(N)=O)C(=O)N[C@@H](CC(N)=O)C(=O)N[C@@H](CC(N)=O)C(=O)N[C@@H](Cc1ccccc1)C(N)=O [prion 148-153, SNQNNF] (Ac-SNQNNF-NH2)
reduction of the paralytic symptoms of EAE (EAE mice; mouse, in vivo): therapeutic

insulin A chain 12-17: hexamer of insulin A chain residues 12-17, acidic residue, sequence only in Table 1 image
pH dependent amyloid fibril formation (ThT staining) [2]: effectively formed amyloid fibrils only in a range of pH 3 to pH 5
molecular chaperone function (inhibition of insulin aggregation) (beta chain of insulin): molecular chaperones at pH 4, but not at pH 7.4

SVNDLV [HspB5 76-81, hexamer of HspB5 residues 76-81]
reduction of the paralytic symptoms of EAE (EAE mice; [3]): effectively reduced the paralytic symptoms of EAE
pH dependent amyloid fibril formation (ThT staining) [2]: effectively formed amyloid fibrils only in a range of pH 3 to pH 5
molecular chaperone function (inhibition of insulin aggregation) (beta chain of insulin): molecular chaperone only at pH4 and not in more basic solutions
inhibition of insulin aggregation (beta chain of insulin): only effective at pH 5

Ac VQIVYK CONH2 [D-tau 623-628]
amyloid fibril formation (ThT staining), L- versus D-amino acids [2]: similar
inhibition of insulin aggregation, L- versus D-amino acids (beta chain of insulin): inhibit insulin aggregation in a dose dependent manner with similar IC50 concentrations

MVGGVV (Ac-MVGGVV-NH2) [A beta A4 35-40, Ac MVGGVV CONH2 in b76]
reduction of the paralytic symptoms of EAE (EAE mice; mice, 1 μg peptide daily, administered in 50% DMSO): therapeutic
amyloid fibril formation (ThT staining), L- versus D-amino acids [2]: equivalent, within error

SSTNVG [amylin 28-33]
reduction of the paralytic symptoms of EAE (EAE mice; [3]): therapeutic

insulin B chain 11-16: hexamer of insulin B chain residues 11-16, acidic residue, sequence only in Table 1 image
reduction of the paralytic symptoms of EAE (EAE mice; [3]): did not statistically significantly reduce the symptoms of EAE
pH dependent amyloid fibril formation (ThT staining) [2]: effectively formed amyloid fibrils only in a range of pH 3 to pH 5
molecular chaperone function (inhibition of insulin aggregation) (beta chain of insulin): molecular chaperones at pH 4, but not at pH 7.4

Cc1ccc2c(c1)sc(-c1ccc(N(C)C)cc1)[n+]2C.[Cl-] [ThT, thioflavin T, reference compound]
effect on the rate of insulin aggregation (control) (beta chain of insulin; 10 mM ThT): Neither the addition of 10 mM ThT nor ThT bound to Tau 623-628 affected the rate of insulin aggregation

LKVKVL [HspB5 89-94, hexamer of HspB5 residues 89-94]
reduction of the paralytic symptoms of EAE (EAE mice; [3]): effectively reduced the paralytic symptoms of EAE
pH dependent amyloid fibril formation (ThT staining) [2]: bound ThT only at pH 10
